Assay results from patent US12281084B2, “Acetyl-CoA synthetase 2 (ACSS2) inhibitors and methods using same” (The Wistar Institute, priority 2019, dated 2025).

Test system: BT474 tumors
Assay: Targeted metabolomic analysis of 99 metabolites in BT474 tumors
Assay type: in vivo, mouse
Conditions: VY-3-135 vs vehicle
Method: All metabolomic experiments were performed in serum-like modified Eagle's medium (SMEM). SMEM contains 54 different nutrients that are found in the bloodstream at concentrations that are physiologically relevant to humans. SMEM was supplemented with 10% or 1% fetal bovine serum (FBS; Life Technologies). Cells were grown in normoxia (atmospheric oxygen) or hypoxia (1% oxygen) while being incubated in uniformly labeled ^13C2-acetate (0.100 mM; Cambridge Isotope Laboratories). Lengths of incubation are described in the figure legends. For extraction of metabolites from cultured cells, SMEM medium was aspirated and cells were washed once in ice-cold PBS. Metabolites were extracted by adding a solution of LC-MS grade methanol/acetonitrile/water (5:3:2) to the well. Plates were incubated at 4° C. for 5 minutes on a rocker and then the extraction solution was collected. The metabolite extract was cleared by centrifugation at 15,000×g for 10 minutes at 4° C. Supernatants were transferred to LC-MS silanized glass vials with PTFE caps and either run immediately on the LC-MS or stored at −80° C. For extraction of metabolites from tumors, tumor bearing mice were sacrificed by exsanguination under anesthesia and tumors were immediately excised and flash frozen in liquid nitrogen. Frozen tumors were weighed and then extracted at 40 mg/mL in extraction solution using a tissue homogenizer (Bullet Blender) and stainless steel beads. The metabolite extract was cleared twice by centrifugation at 15,000×g for 10 minutes at 4° C. Supernatants were transferred to LC-MS silanized glass vials with PTFE caps and either run immediately on the LC-MS or stored at −80° C.
LC-MS analysis was performed on a Q Exactive Hybrid Quadrupole-Orbitrap HF-X MS (ThermoFisher Scientific) equipped with a HESI II probe and coupled to a Vanquish Horizon UHPLC system (ThermoFisher Scientific). 0.002 ml of sample is injected and separated by HILIC chromatography on a ZIC-pHILIC 2.1-mm. Samples are separated by ammonium carbonate, 0.1% ammonium hydroxide, pH 9.2, and mobile phase B is acetonitrile. […] The relevant MS parameters were as listed: sheath gas, 40; auxiliary gas, 10; sweep gas, 1; auxiliary gas heater temperature, 350° C.; spray voltage, 3.5 kV for the positive mode and 3.2 kV for the negative mode. Capillary temperature was set at 325° C., and funnel RF level at 40. Samples were analyzed in full MS scan with polarity switching at scan range 65 to 975 m/z; 120,000 resolution; automated gain control (AGC) target of 1E6; and maximum injection time (max IT) of 100 milliseconds. Identification and quantitation of metabolites was performed using an annotated compound library and TraceFinder 4.1 software. The “M+X” nomenclature refers to the isotopolog for that given metabolite. Isotopologs are chemically identical metabolites that differ only in their number of carbon-13 atoms. For instance, “M+2 citrate” means that two of the six carbons in citrate are carbon-13 while the other four are carbon-12. “M+4 citrate” means that four of the six carbons in citrate are carbon-13 while the other two are carbon-12.
A targeted metabolomic analysis of 99 metabolites in vehicle versus VY-3-135 treated BT474 tumors was performed (FIG. 6E and Table 2).

## CCn1c(C(O)(c2ccccc2)c2ccccc2)nc2ccc(C(=O)NC[C@@H](C)O)cc21 [VY-3-135, (R)-1-ethyl-2-(hydroxydiphenylmethyl)-N-(2-hydroxypropyl)-1H-benzo[d]imidazole-6-carboxamide]
  Log2 FC (VY/Veh) 2-aminobutyrate: −0.5166
  Log2 FC (VY/Veh) 3 -hydroxybutryate: −1.001
  Log2 FC (VY/Veh) 3-phosphoglycerate: −0.5802
  Log2 FC (VY/Veh) 4-hydroxyproline: −0.725
  Log2 FC (VY/Veh) ADP: −1.452
  Log2 FC (VY/Veh) AMP: −0.6555
  Log2 FC (VY/Veh) ATP: −2.026
  Log2 FC (VY/Veh) CDP: −1.642
  Log2 FC (VY/Veh) CDP-choline: −2.603
  Log2 FC (VY/Veh) CDP-ethanolamine: −1.552
  Log2 FC (VY/Veh) CMP: −0.8199
  Log2 FC (VY/Veh) DHAP/G3P: −2.029
  Log2 FC (VY/Veh) FBP: −1.71
  Log2 FC (VY/Veh) GDP: −2.599
  Log2 FC (VY/Veh) GMP: −1.275
  Log2 FC (VY/Veh) GSH: −0.6903
  Log2 FC (VY/Veh) GSSG: 0.2094
  Log2 FC (VY/Veh) IMP: 1.067
  Log2 FC (VY/Veh) PEP: −1.207
  Log2 FC (VY/Veh) SAH: −0.3532
  Log2 FC (VY/Veh) SAM: −1.16
  Log2 FC (VY/Veh) UDP: −1.495
  Log2 FC (VY/Veh) UDP-GlcNAc: −0.8007
  Log2 FC (VY/Veh) UMP: −0.4024
  Log2 FC (VY/Veh) UTP: −2.182
  Log2 FC (VY/Veh) acetyl-aspartate: −0.7575
  Log2 FC (VY/Veh) acetyl-carnitine: −0.5449
  Log2 FC (VY/Veh) acetyl-glycine: −1.037
  Log2 FC (VY/Veh) acetyl-putrescine: −1.423
  Log2 FC (VY/Veh) adenine: 1.003
  Log2 FC (VY/Veh) adenosine: 1.879
  Log2 FC (VY/Veh) aketoglutarate: 0.9192
  Log2 FC (VY/Veh) alanine: −0.6739
  Log2 FC (VY/Veh) arginine: 0.7229
  Log2 FC (VY/Veh) arginosuccinate: −0.1741
  Log2 FC (VY/Veh) asparagine: −1.225
  Log2 FC (VY/Veh) aspartate: 0.009996
  Log2 FC (VY/Veh) betaine: −0.4739
  Log2 FC (VY/Veh) carbamoyl-asp: −0.787
  Log2 FC (VY/Veh) carnitine: −0.6768
  Log2 FC (VY/Veh) choline: −0.5304
  Log2 FC (VY/Veh) cis-aconitate: −0.2247
  Log2 FC (VY/Veh) citrate: −0.1134
  Log2 FC (VY/Veh) citrulline: −0.3937
  Log2 FC (VY/Veh) creatine: −0.5321
  Log2 FC (VY/Veh) creatinine: 0.01869
  Log2 FC (VY/Veh) cystathionine: −1.232
  Log2 FC (VY/Veh) cystine: −0.4837
  Log2 FC (VY/Veh) cytidine: 1.244
  Log2 FC (VY/Veh) cytosine: 1.232
  Log2 FC (VY/Veh) ethanolamine-P: −1.364
  Log2 FC (VY/Veh) glucose-6-P: 0.03691
  Log2 FC (VY/Veh) glucose/hexose: 0.9908
  Log2 FC (VY/Veh) glutamate: −0.5429
  Log2 FC (VY/Veh) glutamine: 0.09203
  Log2 FC (VY/Veh) glycerol: 0.1079
  Log2 FC (VY/Veh) glycerol-3-P: −0.8487
  Log2 FC (VY/Veh) glycine: −0.4034
  Log2 FC (VY/Veh) guanine: 1.969
  Log2 FC (VY/Veh) guanosine: 3.356
  Log2 FC (VY/Veh) histidine: −0.4238
  Log2 FC (VY/Veh) hypoxanthine: 0.3548
  Log2 FC (VY/Veh) isoleucine: −1.483
  Log2 FC (VY/Veh) lactate: −1.761
  Log2 FC (VY/Veh) leucine: −0.6361
  Log2 FC (VY/Veh) lysine: −1.026
  Log2 FC (VY/Veh) malate: 0.0239
  Log2 FC (VY/Veh) malonate: 0.1254
  Log2 FC (VY/Veh) methionine: −1.631
  Log2 FC (VY/Veh) methyl-lysine: −1.396
  Log2 FC (VY/Veh) myo-inositol: −0.4307
  Log2 FC (VY/Veh) niacin/nicotinate: 1.977
  Log2 FC (VY/Veh) nicotinamide: 0.1254
  Log2 FC (VY/Veh) nicotinamide N-oxide: 4.808
  Log2 FC (VY/Veh) ornithine: −0.7516
  Log2 FC (VY/Veh) pantothenate: −0.6181
  Log2 FC (VY/Veh) phenylalanine: −0.5091
  Log2 FC (VY/Veh) phosphocholine: −0.7924
  Log2 FC (VY/Veh) phosphocreatine: 0.324
  Log2 FC (VY/Veh) proline: −0.4024
  Log2 FC (VY/Veh) pyridoxine: 0.3808
  Log2 FC (VY/Veh) pyruvate: −0.8037
  Log2 FC (VY/Veh) riboflavin: −2.12
  Log2 FC (VY/Veh) ribose: −0.5026
  Log2 FC (VY/Veh) ribose-P: 0.2634
  Log2 FC (VY/Veh) sedoheptulose-P: −0.2584
  Log2 FC (VY/Veh) serine: 1.09
  Log2 FC (VY/Veh) succinate: −1.793
  Log2 FC (VY/Veh) succinyladenosine: −0.8738
  Log2 FC (VY/Veh) succinylcysteine: −0.9561
  Log2 FC (VY/Veh) succinylglutathione: −1.861
  Log2 FC (VY/Veh) taurine: 0.1159
  Log2 FC (VY/Veh) threonine: −0.9186
  Log2 FC (VY/Veh) thymidine: 2.328
  Log2 FC (VY/Veh) tryptophan: −0.2045
  Log2 FC (VY/Veh) tyrosine: −0.8432
  Log2 FC (VY/Veh) urate: −0.6288
  Log2 FC (VY/Veh) valine: −0.5942
  Log2 FC (VY/Veh) xanthine: −0.8286
